Test results taken from patent publication US20080319042A1, “Compositions and methods for treatment of liver disease” (priority 2007, published 2008).

Columns and labels:
HCV/HIV pseudovirions = experiment: microbe, parasite or virus in culture; type: cell-based, hepatitis C virus; conditions: 20 μg/mL
HCV JFH1 = HCV JFH1 infectivity assay (JFH1 Foci Reduction Assay); type: cell-based, hepatitis C virus; conditions: virus preincubated with compound; Huh 7 cells; 48 hr post infection; RD8, RD16, RD17, RD18 as glucosidase hydrolysis products
[1] = Enzyme Hydrolysis Processing Time 0.5 hours
[2] = Enzyme Hydrolysis Processing Time 4.0 hours

Row | Structure (SMILES) | HCV Inhibition at 20 μg/mL (HCV/HIV pseudovirions; [1]) | HCV Inhibition at 20 μg/mL (HCV/HIV pseudovirions; [2]) | Estimated IC50 (inhibition of HCV JFH1 infectivity) (HCV JFH1) [µg/mL]
1 | COC(=O)C1=COC(O)C2C1C(O)CC2(C)O (mixture of isomers) [RD-16] | 49.0 | 61.2 | 14
2 | O=C(C=Cc1ccc(O)cc1)OCC1=CC(O)C2C=COC(O)C12 (mixture of isomers) [RD-18] | 46.6 | 56.6 | 26
3 | COC(=O)C1=COC(O)C2C1CC(O)C2C (mixture of isomers) [RD-8] | 24.8 | 41.4 | 15
4 | CC1C(O)CC2C(C(=O)O)=COC(O)C21 (mixture of isomers) [RD-17] | 39.4 | 52.5 | 17
